# Source: patent publication US20240165078A1, “THERAPEUTIC TARGETING OF RECEPTOR TYROSINE KINASE INHIBITOR-INDUCED ANDROGEN RECEPTOR PHOSPHORYLATION IN CANCER” (Indiana University Research and Technology Corporation, priority 2018, published 2024)
# Where a SMILES comes first, the peptide text is derived from it. The star is where a group is joined. Cbz = O=C(OCc1ccccc1)*
# Tests used:
# [1] = tested on: AR+ RCC cell lines (786-0R, UMRC2, Caki2); assay: Crystal violet cell viability assay, AR+ RCC cell lines; assay type: cell-based, human
# Description: (§1) AR expression was also assessed in other RCC cell lines (FIG. 1E).
# KLK2 [2] = assay: Human KLK2 ELISA, tissue culture supernatant; assay type: cell-based; settings: in vitro, RCC cell lines
# KLK2 [3] = assay: Human KLK2 ELISA, serum of 786-0 tumor bearing mice; assay type: in vivo; settings: 786-0 model, end-point
# CDK1 = assay: Western blot for CDK1 in RP-R-02LM tumors treated in vivo; settings: RP-R-02LM intrinsically sunitinib-resistant tumors
# Description: Cells were maintained and cultured in the appropriate media, supplemented with 10% FBS and 1% penicillin and streptomycin. All cells are routinely tested and checked for the absence of mycoplasma. […] Crystal violet assay (Sigma) was used to evaluate cells growth after different time point-treatment, and absorbance was read using a spectrometer (xMarks Spectrometer, Bio-Rad). […] Six-week-old homozygous ICR, Severe Combined Immune-deficient (SCID) female mice were housed in a sterile, pathogen-free facility and maintained in a temperature controlled room, under a 12-hour light/dark schedule with water and food ad libitum. […] All mice were operated under sedation with oxygen, isoflurane and buprenorphine. When tumors were established, and reached 50 mm^2, mice were randomly grouped and placed in either control group or treatment groups (n=5-10). […] Tumor burden was assessed once a week by caliper measurement of two diameters of the tumor (L×W=mm^2) and reported as tumor volume ((L×W2)/2=mm^3). Body weights were assessed using a weighing scale and recorded in grams. Endpoint tumor weights were assessed using a weigh scale and recorded in grams. […]
# Whole cell protein extracts from tissue and cell were denatured, separated on SDS-PAGE gels and transferred to nitrocellulose membranes. […] Quantitative measurements of Western blot analysis were performed using ImageJ and Graph-Pad software (Prism 7).
# LNCaP cells = assay: LNCaP cell phenotype and drug activity; assay type: cell-based; settings: sunitinib-exposed LNCaP cells
# androgen receptor [4] = biological target: T1, androgen receptor (Homo sapiens, UniProt P10275); assay: AR expression by immunofluorescence in UMRC2siSPOP cells; assay type: cell-based; settings: UMRC2siSPOP compared to UMRC2, in the presence of sunitinib
# T1 construct: Baseline AR expression was high in 786-0R and UMRC2 cells; host or cells: 786-0, 786-0R, UMRC2
# T1 sequence (P10275 1-920): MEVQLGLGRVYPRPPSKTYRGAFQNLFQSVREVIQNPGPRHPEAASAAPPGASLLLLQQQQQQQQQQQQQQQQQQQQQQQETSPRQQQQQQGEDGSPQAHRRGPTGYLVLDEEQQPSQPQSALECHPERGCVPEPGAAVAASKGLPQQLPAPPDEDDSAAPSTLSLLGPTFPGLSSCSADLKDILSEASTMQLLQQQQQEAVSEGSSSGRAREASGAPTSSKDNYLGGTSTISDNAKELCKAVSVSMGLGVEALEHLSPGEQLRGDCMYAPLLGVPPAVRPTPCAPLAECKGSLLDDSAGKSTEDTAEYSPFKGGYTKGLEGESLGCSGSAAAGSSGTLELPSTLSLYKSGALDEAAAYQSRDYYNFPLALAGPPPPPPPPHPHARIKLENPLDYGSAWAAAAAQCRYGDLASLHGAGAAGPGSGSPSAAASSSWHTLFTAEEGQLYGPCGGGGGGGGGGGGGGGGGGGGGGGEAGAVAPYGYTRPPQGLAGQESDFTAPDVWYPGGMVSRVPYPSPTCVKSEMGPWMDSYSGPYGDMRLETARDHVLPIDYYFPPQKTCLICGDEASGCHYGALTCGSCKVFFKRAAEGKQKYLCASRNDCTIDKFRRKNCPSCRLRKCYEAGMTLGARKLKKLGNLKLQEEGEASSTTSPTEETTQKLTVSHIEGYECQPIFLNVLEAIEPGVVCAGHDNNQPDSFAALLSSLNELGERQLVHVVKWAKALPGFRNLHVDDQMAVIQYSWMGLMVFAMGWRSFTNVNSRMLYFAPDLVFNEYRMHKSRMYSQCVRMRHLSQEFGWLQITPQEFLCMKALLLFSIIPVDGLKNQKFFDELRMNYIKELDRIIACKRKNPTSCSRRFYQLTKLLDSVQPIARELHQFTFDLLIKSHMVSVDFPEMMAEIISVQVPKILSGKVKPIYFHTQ
# 786-0 cells = assay: Sunitinib dose-response proliferation assay; assay type: cell-based; settings: Homo sapiens
# Description: as §1
# KLK2 [5] = assay: KLK2 serum level in RCC PDX models RP-R-02 and RP-R-02LM; assay type: in vivo, human; settings: sunitinib acquired (RP-R-02) and intrinsic (RP-R-02LM) resistance models
# 786-OAR cells = assay: Sunitinib dose-response proliferation assay, AR-overexpressing cells; assay type: cell-based; settings: Homo sapiens; 786-OAR (786-0 overexpressing ARwt)
# Description: as §1
# KLK2 [6] = assay: KLK2 ELISA in plasma of kidney cancer patients; assay type: in vivo, human; settings: kidney cancer patients treated with sunitinib
# androgen receptor [7] = biological target: T1, androgen receptor; assay: AR expression by immunofluorescence in RCC cells (sunitinib, enzalutamide, combination, ±MG132); assay type: cell-based; settings: 786-0R and UMRC2 cells
# 786-0 tumors = assay: 786-0 RCC tumor model in mice; assay type: in vivo
# [8] = tested on: AR targeted genes (KLK2, KLK4, ZBTB16, MYC); assay: q-PCR of AR targeted genes after sunitinib; assay type: cell-based, human; settings: 786-0R and UMRC2 cells, sunitinib treatment
# Description: RNA was extracted in accordance with manufacturer's protocol (miRNeasy; Qiagen), and RNA sequencing was performed as previously described (25). In brief, RNA illumine sequencing reads were de-multiplex, aligned against human genome (hg19), and results aligned to BAM formatted sequence alignment map via cufflinks program. Differential expressed transcripts were identified between 786-0 and 786-0R samples, and ranked based on the square root of the sum of squares for the log 2 fold change. For qRT-PCR analysis, gene expression assessment on AR target genes was performed using the Prime PCR array (Bio-Rad) according to manufacturer's protocol. AR primer used is forward primer; 5-[…]-3 (SEQ ID NO:1) and reverse primer; 5-[…]-3 (SEQ ID NO:2). In brief, the denaturation step was carried out at 95° C. for 10 seconds; the annealing step was carried out at 58° C. for 30 seconds, and extension step at 72° C. for 1 minute using the applied Biosystems 7900HT fast real-time PCR system (Applied Biosystems). Sequence Detection Systems Software v2.3 was used to identify cycle threshold (Ct) values and generate gene expression curves. All data were normalized to either GAPDH expression.
# Gene expression of AR targeted genes was then examined in the presence or absence of sunitinib treatment.
# 786-0R cells = assay: Ki67 immunofluorescence staining; assay type: cell-based, human; settings: in the presence of sunitinib and enzalutamide
# Description: as §1
SMILES,"cell viability, single agent ([1]; AR+ 786-0R cells)",KLK2 in tissue culture supernatant (KLK2 [2]),circulating KLK2 levels (KLK2 [3]),"IC50 for sunitinib by AR status ([1]; AR+ lines (786-0R, UMRC2, Caki2) compared to AR- lines (786-0, ACHN))",CDK1 protein expression (CDK1),activity of enzalutamide (LNCaP cells),AR expression (androgen receptor [4]),IC50 (786-0 cells),KLK2 in serum (KLK2 [5]),IC50 (786-OAR cells),KLK2 in plasma (KLK2 [6]),AR expression (androgen receptor [7]),angiogenesis (CD31 staining) (786-0 tumors; 786-0 tumors),proliferation in vivo (Ki67 staining) (786-0 tumors; 786-0 tumors),"time when tumors became resistant to sunitinib (≥50% increase volume from nadir) (786-0 tumors; second experiment, sunitinib 40 mg/kg)","increased gene expression of KLK2, KLK4, ZBTB16 and MYC [8]",cell proliferation (Ki67 staining) (786-0R cells)
"CNC(=O)c1ccc(N2C(=S)N(c3ccc(C#N)c(C(F)(F)F)c3)C(=O)C2(C)C)cc1F [enzalutamide, 4-(3-(4-cyano-3-(trifluoromethyl)phenyl)-5,5-dimethyl-4-oxo-2-thioxoimidazolidin-1-yl)-2-fluoro-N-methylbenzamide]",did not have a significant effect,modulated,decreased,,,,,,,,,,,,,,
"CCN(CC)CCNC(=O)c1c(C)[nH]c(/C=C2\C(=O)Nc3ccc(F)cc32)c1C [sunitinib, N-(2-Diethylaminoethyl)-5-[(Z)-(5-fluoro-2-oxo-1H-indol-3-ylidene)methyl]-2,4-dimethyl-1H-pyrrole-3-carboxamide]",,increased KLK2,,higher IC50,increased CDK1 protein expression,increased the activity of enzalutamide,significant increased AR expression,5.2 µM,increased,12.3 µM,increase of KLK2,increased,inhibition of angiogenesis,continued to proliferate,45 days,2-100 fold,
CC(C)C[C@@H](C=O)NC(=O)[C@H](CC(C)C)NC(=O)[C@H](CC(C)C)NC(=O)OCc1ccccc1 [MG132] (Cbz-Leu-Leu-Leu-aldehyde),,,,,,,,,,,,,,,,,restoration of cell proliferation
